Measurements as given in patent US20210000912A1, “Compositions And Methods For Prophylaxis Or Treatment Of Pain” (Interk Peptide Therapeutics Limited, priority 2017, published 2021).
Where two headings read alike, the source gives them in different places. Non-standard residues stand in square brackets, D forms with d. Residues, ends and D or L forms follow the SMILES beside them. No end group written: not given here. Orn = NCCC[C@H](N)C(=O)O

Experiments:
[1] = target: T1, PKG1β (h) (Homo sapiens, UniProt Q13976); assay: PKG1β kinase activity assay, cell free; type: biochemical
T1 construct: purchased Eurofins Pharma Discovery Services UK Ltd (contract assay service)
T1 sequence (Q13976 1-686 isoform Q13976-2): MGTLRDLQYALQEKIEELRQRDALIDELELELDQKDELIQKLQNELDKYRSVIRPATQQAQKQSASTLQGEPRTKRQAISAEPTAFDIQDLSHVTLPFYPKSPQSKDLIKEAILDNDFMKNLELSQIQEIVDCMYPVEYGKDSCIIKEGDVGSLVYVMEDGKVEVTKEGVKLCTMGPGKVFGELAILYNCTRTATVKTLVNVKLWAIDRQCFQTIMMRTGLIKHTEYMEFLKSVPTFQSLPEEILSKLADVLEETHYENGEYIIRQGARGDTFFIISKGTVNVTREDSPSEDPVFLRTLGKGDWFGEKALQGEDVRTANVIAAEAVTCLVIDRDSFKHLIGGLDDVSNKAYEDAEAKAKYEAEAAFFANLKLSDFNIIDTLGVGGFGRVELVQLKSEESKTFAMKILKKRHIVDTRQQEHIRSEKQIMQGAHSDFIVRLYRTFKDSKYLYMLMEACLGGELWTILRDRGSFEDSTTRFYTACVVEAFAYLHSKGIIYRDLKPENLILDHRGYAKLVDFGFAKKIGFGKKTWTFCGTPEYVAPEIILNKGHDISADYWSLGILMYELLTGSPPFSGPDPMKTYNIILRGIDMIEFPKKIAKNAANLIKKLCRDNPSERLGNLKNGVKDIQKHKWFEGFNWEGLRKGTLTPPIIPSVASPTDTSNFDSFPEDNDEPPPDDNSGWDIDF
Procedure: (§1) The capacity of test peptides to inhibit the activity of the kinases PKG1α, PKG1β, and Src family kinases in a cell free assay was assessed. The test peptides were amidated at their C-terminal end (indicated by “—NH2”) unless otherwise noted. Kinase activity assays were conducted by Eurofins Pharma Discovery Services UK Ltd (Dundee Technology Park, Dundee, United Kingdom) and Reaction Biology Corp. (Malvern, Pa., USA).
(§2) All test peptides are prepared to 50× final assay concentration in 100% DMSO. This working stock of the test compound is added to assay wells as the first component in the reaction, followed by the remaining components of the respective assay protocols described below. There is no pre-incubation step between the test peptide and the kinase prior to initiation of the reaction. The kinases are diluted in buffer (20 mM MOPS, 1 mM EDTA, 0.01% Brij-35, 5% Glycerol, 0.1% β-mercaptoethanol, 1 mg/mL BSA) prior to addition to the reaction mix.
(§3) Positive control wells contain all components of the reaction, except the test peptide of interest. However, DMSO (at a final concentration of 2%) is included in positive control wells to control for solvent effects. Negative control wells contain all components of the reaction, with a reference inhibitor (staurosporine) replacing the test peptide. This abolishes kinase activity and establishes a base-line (0% kinase activity). Kinase assay protocols (Eurofins Pharma Discovery Services UK Ltd, Dundee Technology Park, Dundee, United Kingdom) are described below. Of the Src family kinases, only the assay protocol for c-Src is shown.
(§4) PKG1b(h) is incubated with 8 mM MOPS pH 7.0, 0.2 mM EDTA, 10 μM cGMP, 200 μM RRRLSFAEPG, 10 mM magnesium acetate and [γ-^33P]-ATP (specific activity approx. 500 cpm/pmol, concentration as required). The reaction is initiated by the addition of the MgATP mix. After incubation for 40 minutes at room temperature, the reaction is stopped by the addition of 3% phosphoric acid solution. A 10 μL aliquot of the reaction is then spotted onto a P30 filtermat and washed three times for 5 mins in 75 mM phosphoric acid and once in methanol prior to drying and scintillation counting.

[2] = target: T2, c-Src (h) (Homo sapiens, UniProt P12931); assay: c-Src kinase activity assay, cell free; type: biochemical
T2 construct: purchased Eurofins Pharma Discovery Services UK Ltd (contract assay service)
T2 sequence (P12931 whole entry): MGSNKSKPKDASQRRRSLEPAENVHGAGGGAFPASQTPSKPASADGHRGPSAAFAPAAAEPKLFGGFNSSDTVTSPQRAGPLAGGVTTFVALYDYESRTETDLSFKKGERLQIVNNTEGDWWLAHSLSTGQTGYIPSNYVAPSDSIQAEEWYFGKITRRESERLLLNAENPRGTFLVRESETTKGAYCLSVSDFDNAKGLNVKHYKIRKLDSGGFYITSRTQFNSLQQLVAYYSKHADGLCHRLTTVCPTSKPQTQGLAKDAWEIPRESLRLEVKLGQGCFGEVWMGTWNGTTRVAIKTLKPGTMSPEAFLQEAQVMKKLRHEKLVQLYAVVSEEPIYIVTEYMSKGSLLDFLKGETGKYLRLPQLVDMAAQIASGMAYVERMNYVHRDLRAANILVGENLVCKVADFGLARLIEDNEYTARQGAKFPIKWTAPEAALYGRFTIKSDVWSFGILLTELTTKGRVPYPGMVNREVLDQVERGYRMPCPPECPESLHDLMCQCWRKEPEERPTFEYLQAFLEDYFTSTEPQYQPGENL
Procedure: as §1, §2, §3
as §4, with “c-Src (h) is” for “PKG1b(h) is”, “EDTA, 250” for “EDTA, 10”, “μM KVEKIGEGTYGVVYK (Cdc2 peptide),” for “μM cGMP, 200 μM RRRLSFAEPG,”, “mM MgAcetate” for “mM magnesium acetate”, “5 minutes” for “5 mins”

[3] = target: T3, PKG1α (h) (Homo sapiens, UniProt Q13976); assay: PKG1α kinase activity assay, cell free; type: biochemical
T3 construct: purchased Eurofins Pharma Discovery Services UK Ltd (contract assay service)
T3 sequence (Q13976 1-671): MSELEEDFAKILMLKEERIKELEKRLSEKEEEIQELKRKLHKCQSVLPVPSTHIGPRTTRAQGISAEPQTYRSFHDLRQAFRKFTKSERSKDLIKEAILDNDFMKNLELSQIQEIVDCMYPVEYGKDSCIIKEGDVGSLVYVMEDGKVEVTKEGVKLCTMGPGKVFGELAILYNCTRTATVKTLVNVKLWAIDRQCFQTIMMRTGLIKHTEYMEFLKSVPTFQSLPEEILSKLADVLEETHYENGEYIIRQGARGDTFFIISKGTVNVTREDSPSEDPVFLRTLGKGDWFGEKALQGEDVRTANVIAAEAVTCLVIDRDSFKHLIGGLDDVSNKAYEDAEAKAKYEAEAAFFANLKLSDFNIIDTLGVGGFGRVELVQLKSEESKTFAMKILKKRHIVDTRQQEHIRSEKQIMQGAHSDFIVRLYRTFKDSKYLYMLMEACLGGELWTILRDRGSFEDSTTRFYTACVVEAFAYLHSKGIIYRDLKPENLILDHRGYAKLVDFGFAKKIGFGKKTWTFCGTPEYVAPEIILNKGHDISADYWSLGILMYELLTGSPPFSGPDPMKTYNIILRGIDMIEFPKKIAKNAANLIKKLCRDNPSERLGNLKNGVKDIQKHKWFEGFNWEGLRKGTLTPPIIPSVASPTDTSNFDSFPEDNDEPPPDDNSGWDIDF
Procedure: as §1, §2, §3
as §4, with “PKG1α (h) is incubated” for “PKG1b(h) is incubated”, “200 μM peptide RRRLSFAEPG, 10” for “200 μM RRRLSFAEPG, 10”

[4] = Resistance to simulated gastric fluid; type: in vitro ADME
Procedure: Test 14 Arg peptides consisting of 14 contiguous L- or D-arginine amino acids were tested for resistance to simulated gastric fluid (porcine pepsin in a HCl and NaCl solution) at a pH of 2.01 for a period of 24 hours. Negligible degradation of each peptide was observed by exposure to the simulated gastric fluid over the 24 hour test period.

[5] = cell free, 10 μM cGMP, 40 minutes at room temperature, read-out: PKG1β IC50
[6] = cell free, 40 minutes at room temperature, read-out: c-Src IC50
[7] = cell free, 10 μM cGMP, 40 minutes at room temperature, read-out: PKG1α IC50

Row | Compound | IC50 [1, 5] [nM] | IC50 [2, 6] [nM] | IC50 [3, 7] [nM] | IC50 [1] [nM] | IC50 [2] [nM] | IC50 [3] [nM] | also measured
1 | N=C(N)NCCC[C@H](NC(=O)[C@H](CCCNC(=N)N)NC(=O)[C@H](CCCNC(=N)N)NC(=O)[C@H](CCCNC(=N)N)NC(=O)[C@H](CCCNC(=N)N)NC(=O)[C@H](CCCNC(=N)N)NC(=O)[C@H](CCCNC(=N)N)NC(=O)[C@H](CCCNC(=N)N)NC(=O)[C@H](CCCNC(=N)N)NC(=O)[C@@H](N)CCCNC(=N)N)C(N)=O [IK00100, RRRRRRRRRR-NH2] | 9 | 7 | 16 | – | – | – | –
2 | N=C(N)NCCC[C@H](NC(=O)[C@H](CCCNC(=N)N)NC(=O)[C@H](CCCNC(=N)N)NC(=O)[C@H](CCCNC(=N)N)NC(=O)[C@H](CCCNC(=N)N)NC(=O)[C@H](CCCNC(=N)N)NC(=O)[C@H](CCCNC(=N)N)NC(=O)[C@H](CCCNC(=N)N)NC(=O)[C@H](CCCNC(=N)N)NC(=O)[C@H](CCCNC(=N)N)NC(=O)[C@H](CCCNC(=N)N)NC(=O)[C@H](CCCNC(=N)N)NC(=O)[C@H](CCCNC(=N)N)NC(=O)[C@@H](N)CCCNC(=N)N)C(=O)O [IK0140H, RRRRRRRRRRRRRR] | – | – | – | 7 | > 1000 | 7 | –
3 | N=C(N)NCCC[C@H](NC(=O)[C@H](CCCNC(=N)N)NC(=O)[C@H](CCCNC(=N)N)NC(=O)[C@H](CCCNC(=N)N)NC(=O)[C@H](CCCNC(=N)N)NC(=O)[C@@H](N)CCCNC(=N)N)C(N)=O [IK00600, RRRRRR-NH2] | 457 | 100 | > 1000 | – | – | – | –
4 | N=C(N)NCCC[C@H](NC(=O)[C@H](CCCNC(=N)N)NC(=O)[C@H](CCCNC(=N)N)NC(=O)[C@H](CCCNC(=N)N)NC(=O)[C@H](CCCNC(=N)N)NC(=O)[C@H](CCCNC(=N)N)NC(=O)[C@H](CCCNC(=N)N)NC(=O)[C@@H](N)CCCNC(=N)N)C(N)=O [IK00800, RRRRRRRR-NH2] | 55 | 26 | 75 | – | – | – | –
5 | N=C(N)NCCC[C@H](NC(=O)[C@H](CCCNC(=N)N)NC(=O)[C@H](CCCNC(=N)N)NC(=O)[C@H](CCCNC(=N)N)NC(=O)[C@H](CCCNC(=N)N)NC(=O)[C@H](CCCNC(=N)N)NC(=O)[C@H](CCCNC(=N)N)NC(=O)[C@H](CCCNC(=N)N)NC(=O)[C@@H](N)CCCNC(=N)N)C(N)=O [IK00900, RRRRRRRRR-NH2] | 22 | 4 | 33.5 | – | – | – | –
6 | N=C(N)NCCC[C@H](NC(=O)[C@H](CCCNC(=N)N)NC(=O)[C@H](CCCNC(=N)N)NC(=O)[C@H](CCCNC(=N)N)NC(=O)[C@H](CCCNC(=N)N)NC(=O)[C@H](CCCNC(=N)N)NC(=O)[C@H](CCCNC(=N)N)NC(=O)[C@H](CCCNC(=N)N)NC(=O)[C@H](CCCNC(=N)N)NC(=O)[C@H](CCCNC(=N)N)NC(=O)[C@H](CCCNC(=N)N)NC(=O)[C@@H](N)CCCNC(=N)N)C(N)=O [IK01200, RRRRRRRRRRRR-NH2] | – | – | – | 7 | 6 | 8 | –
7 | N=C(N)NCCC[C@@H](N)C(=O)N[C@H](CCCNC(=N)N)C(=O)N[C@H](CCCNC(=N)N)C(=O)N[C@H](CCCNC(=N)N)C(=O)N[C@H](CCCNC(=N)N)C(=O)N[C@H](CCCNC(=N)N)C(=O)N[C@H](CCCNC(=N)N)C(=O)N[C@H](CCCNC(=N)N)C(=O)N[C@H](CCCNC(=N)N)C(=O)N[C@H](CCCNC(=N)N)C(=O)N[C@H](CCCNC(=N)N)C(=O)N[C@H](CCCNC(=N)N)C(=O)N[C@H](CCCNC(=N)N)C(=O)N[C@H](CCCNC(=N)N)C(N)=O [IKD01400, rrrrrrrrrrrrrr-NH2] | – | – | – | 10 | 6 | 11 | remaining at 1 h ([4]; pig, simulated gastric fluid with porcine pepsin, simulated gastric fluid pH 2.01, 1 hr, read-out: % of intact peptide observed): 98.9%; remaining at 4 h ([4]; pig, simulated gastric fluid with porcine pepsin, simulated gastric fluid pH 2.01, 4 hrs, read-out: % of intact peptide observed): 98.7%; remaining at 24 h ([4]; pig, simulated gastric fluid with porcine pepsin, simulated gastric fluid pH 2.01, 24 hrs, read-out: % of intact peptide observed): 97.5%; % of intact peptide observed ([4]; simulated gastric fluid pH 2.01, time 0): 98.79%
8 | NCCC[C@H](NC(=O)[C@H](CCCN)NC(=O)[C@H](CCCN)NC(=O)[C@H](CCCN)NC(=O)[C@H](CCCN)NC(=O)[C@H](CCCN)NC(=O)[C@H](CCCN)NC(=O)[C@H](CCCN)NC(=O)[C@H](CCCN)NC(=O)[C@@H](N)CCCN)C(N)=O [IKNOR10, OrnOrnOrnOrnOrnOrnOrnOrnOrnOrn-NH2, reference compound] (H-[Orn][Orn][Orn][Orn][Orn][Orn][Orn][Orn][Orn][Orn]-NH2; N-terminus assumed) | – | – | – | > 1000 | 7 | > 1000 | –
9 | HHHHHHHHHH-NH2 [IK00010, HHHHHHHHHH-NH2, reference compound] | > 1000 | > 1000 | > 1000 | – | – | – | –
10 | KKKKKKKKKK-NH2 [IK00K00, KKKKKKKKKK-NH2, reference compound] | > 1000 | 96 | > 1000 | – | – | – | –
11 | RRRRRRRRRRRRRRRR-NH2 [IK01600, RRRRRRRRRRRRRRRR-NH2] | 4 | 4 | 6 | – | – | – | –
12 | RRRRRRRRRRRRRRRRRRRR-NH2 [IK00200] | 6 | – | 6 | – | – | – | –
